Patent publication US20110300198A1, “HYDROCOLLOID - ESSENTIAL OIL PATCHES” (priority 2010, published 2011)

Legend:
[1] = Preliminary in-vivo experiment, constituents in blood (GC, WAX column); parameters: species or system rat
[2] = Preliminary in-vivo experiment, constituents in urine (GC); conditions: male, Sprague-Dawley, rat, 7.5 % lavender essential oil in almond oil, collected urine sample, 84 h after the simulated massage
Description: Male Sprague-Dawley rats, weighing 300-350 g, were used in the studies (Harlan, Rehovot, Israel). The experimental protocols were approved by the Hebrew University of Jerusalem Committee on the Use and Care of Animals. Rats were maintained under specified-pathogen-free (SPF) conditions and were allowed to acclimate to the environment for at least 7 days before their use in the study. Rats were anesthetized and the fur on their stomach shaved prior to exposure. […] Each rat was housed in an individual cage in order to prevent oral contamination of the essential oil by one rat eating another's patch. Blood samples (0.5 ml) were taken at 0, 12, 24, 36, 48 and 60 h from a nick at the tip of tail to determine contents of essential-oil components. Rats were restrained and the tail was gently massaged to facilitate blood collection. […] Urine samples were similarly analyzed by gas chromatography (GC).
Similar values of camphor (FIG. 17) were detected following application of a lavender oil patch on the back and abdomen. […] In the blood of rats with an abdomen-adhered patch, more linalyl acetate was detected than in the blood of rats with a back patch. […] In a collected urine sample, 0.01265 mg L^−1 linalool and 0.00903 mg L^−1 linalyl acetate were detected. […] In addition, no traces of camphor were detected in the urine (note that the urine analysis was performed 84 h after the simulated massage).

[3] = In-vivo experiment with WAX column, constituents in blood; parameters: species or system rat; conditions: 7.5% lavender oil patch on abdomen; split injection
Description: Male Sprague-Dawley rats, weighing 300-350 g, were used in the studies (Harlan, Rehovot, Israel). The experimental protocols were approved by the Hebrew University of Jerusalem Committee on the Use and Care of Animals. Rats were maintained under specified-pathogen-free (SPF) conditions and were allowed to acclimate to the environment for at least 7 days before their use in the study. Rats were anesthetized and the fur on their stomach shaved prior to exposure. Gum karaya patches with and without lavender essential oil were applied to the rat's stomach skin. Each rat was housed in an individual cage in order to prevent oral contamination of the essential oil by one rat eating another's patch. Blood samples (0.5 ml) were taken at 0, 12, 24, 36, 48 and 60 h from a nick at the tip of tail to determine contents of essential-oil components. Rats were restrained and the tail was gently massaged to facilitate blood collection. Blood samples were collected in vials containing 0.1 ml heparin (100 kU, Sigma). A 10-μl volume of aqueous linalyl isovalerate stock solution was added as an internal standard to each blood sample and samples were stored at −80° C. […] Urine samples were similarly analyzed by gas chromatography (GC). […]
Patches that included lavender essential oil were adhered to the abdomen skin for 60 h. […] Between 12 and 36 h, a similar, non-significant change in levels was detected. […]

Structure (SMILES) | Detection in blood ([1]; after rubbing with the almond-lavender oil mixture (massage)) | concentration at 84 h ([2]; in vivo) [ng/mL] | Highest concentration in blood ([1]; 30 min after rubbing the skin with almond-lavender essential oil mixture) [mg/L] | Highest concentration in blood ([1]; 36 h after a 7.5% lavender essential oil patch was adhered to the abdomen) [mg/L] | Time for which the constituent was evident in the blood ([1]; after rubbing the skin with the almond-essential oil mixture) [min] | concentration at 84 h ([2]; topical) [ng/mL] | Level in blood after 60 h [3]
C=CC(C)(CCC=C(C)C)OC(C)=O (stereo not shown) [Linalyl acetate] | No linalyl acetate was detected | 9.03 | – | – | – | – | –
C=CC(C)(O)CCC=C(C)C (stereo not shown) [Linalool] | – | – | 0.32 | 0.48 | 80 | 12.7 | no traces
